Experimental findings from patent publication US10681908B2, “Molecules having pesticidal utility, and intermediates, compositions, and processes, related thereto” (Dow AgroSciences LLC, priority 2016, dated 2020) are described below.

Common to all, as to type: in vivo
In data set [1] the test system is Green Peach Aphid (Myzus persicae, MYZUPE). In words: Bioassay on Green Peach Aphid (GPA), foliar spray on infested cabbage seedlings. Conditions: 72 h, 200 ppm foliar spray, three days, Abbott corrected % control, read-out: GPA % Control (or Mortality) rating. On the procedure:
Example B: Bioassays on Green Peach Aphid (Myzus Persicae, MYZUPE) (“GPA”)
Certain molecules disclosed in this document were tested against GPA using procedures described in the following example. In the reporting of the results, the “GPA & YFM Rating Table” was used (See Table Section).
Cabbage seedlings grown in 3-inch pots, with 2-3 small (3-5 cm) true leaves, were used as test substrate. The seedlings were infested with 20-50 GPA (wingless adult and nymph stages) one day prior to chemical application. Four pots with individual seedlings were used for each treatment. Test molecules (2 mg) were dissolved in 2 mL of acetone/methanol (1:1) solvent, forming stock solutions of 1000 ppm test molecule. The stock solutions were diluted 5× with 0.025% Tween 20 in water to obtain the solution at 200 ppm test molecule. A hand-held aspirator-type sprayer was used for spraying a solution to both sides of […] leaves until runoff. Reference plants (solvent check) were sprayed with the diluent only containing 20% by volume of acetone/methanol (1:1) solvent. Treated plants were held in a holding room for three days at approximately 25° C. and ambient relative humidity (RH) prior to grading. Evaluation was conducted by counting the number of live aphids per plant under a microscope. Percent Control was measured by using Abbott's correction formula (W. S. Abbott, “A Method of Computing the Effectiveness of an Insecticide” J. Econ. Entomol. 18 (1925), pp. 265-267) as follows. Corrected % Control=100*(X−Y)/X • where • X=No. of live aphids on solvent check plants and • Y=No. of live aphids on treated plants

Data set [2] has as its system Cabbage Looper (Trichoplusia ni, TRIPNI). Nature of the data set: Bioassay on Cabbage Looper (CL), 128-well diet tray assay. Conditions: 168 h, 50 μg/cm^2 on artificial diet, second instar larvae, five to seven days, 25° C., read-out: CL % Control (or Mortality) rating. In short, it runs like this: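 Percent mortality, averaged over eight wells, scored after five to seven days at 25° C. under 14:10 light-dark. Each well held 1–5 second-instar larvae on artificial diet treated with 50 μg/cm^2 test molecule applied in 90:10 acetone-water and dried.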

The subject of data set [3] is Beet Armyworm (Spodoptera exigua, LAPHEG). In words: Bioassay on Beet Armyworm (BAW), 128-well diet tray assay. Conditions: 168 h, 50 μg/cm^2 on artificial diet, second instar larvae, five to seven days, 25° C., read-out: BAW % Control (or Mortality) rating. In short, it runs like this: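 Mortality of second-instar larvae (one to five per well) was scored after five to seven days at 25 °C under 14:10 light-dark and averaged across eight wells. Each well's diet had received 50 μg/cm^2 test molecule from a 90:10 acetone-water solution, allowed to dry before infestation.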

Data set [4] concerns Yellow Fever Mosquito (Aedes aegypti, AEDSAE). Conditions: about 1 day-old larvae, 3 days, room temperature, scored on mortality. The method in brief: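 Compounds from DMSO master plates (4000 ppm stock) diluted with 90:10 water:acetone, then about 1-day-old larvae in liver-powder water added. Held covered at room temperature for 3 days; each well scored for mortality.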

`CCS(=O)(=O)C[C@@H](C)NC(=O)c1ccc(/C(F)=C/C(c2cc(Br)cc(Br)c2)C(F)(F)F)cc1C(F)(F)F` (stereo partly drawn) [F42, 4-((Z)-3-(3,5-Dibromophenyl)-1,4,4,4-tetrafluorobut-1-en-1-yl)-N—((R)-1-(ethylsulfonyl)propan-2-yl)-2-(trifluoromethyl)benzamide]: the mortality at 200 ppm in data set [1] fell in the range of 0 to 80%. The mortality at 50 µg/cm2 in data set [2] and in data set [3] was 50 to 100% in each case. Further, the “YFM % Control (or Mortality) rating” value in data set [4] is given as “A (80-100)”.

On to `CCS(=O)(=O)C[C@@H](C)NC(=O)c1ccc(/C(F)=C/C(c2cc(Cl)c(F)c(Cl)c2)C(F)(F)F)cc1C(F)(F)F` (stereo partly drawn) [F43, 4-((Z)-3-(3,5-Dichloro-4-fluorophenyl)-1,4,4,4-tetrafluorobut-1-en-1-yl)-N—((R)-1-(ethylsulfonyl)propan-2-yl)-2-(trifluoromethyl)benzamide], for which the mortality at 200 ppm in data set [1] lay within 80 to 100%. For the same compound, the mortality at 50 µg/cm2 in data set [2] and in data set [3] was 50 to 100% in each case. Also, in data set [4], the “YFM % Control (or Mortality) rating” value is given as “A (80-100)”.

For `CCS(=O)(=O)C[C@@H](C)NC(=O)c1ccc(/C(F)=C/C(c2ccc(Cl)c(Cl)c2)C(F)(F)F)cc1C(F)(F)F` (stereo partly drawn) [F46, 4-((Z)-3-(3,4-Dichlorophenyl)-1,4,4,4-tetrafluorobut-1-en-1-yl)-N—((R)-1-(ethylsulfonyl)propan-2-yl)-2-(trifluoromethyl)benzamide], the mortality at 200 ppm in data set [1] was in the range of 0 to 80%. For the same compound, the mortality at 50 µg/cm2 in data set [2] and in data set [3] was 50 to 100% throughout. In addition, in data set [4], the “YFM % Control (or Mortality) rating” value is listed as “B (More than 0-Less than 80)”.

`C[C@H](C[S+]([O-])CC(F)(F)F)NC(=O)c1ccc(/C(F)=C/C(c2cc(Cl)cc(Br)c2)C(F)(F)F)cc1C(F)(F)F` (stereo partly drawn) [F68, 4-((Z)-3-(3-Bromo-5-chlorophenyl)-1,4,4,4-tetrafluorobut-1-en-1-yl)-N-((2R)-1-((2,2,2-trifluoroethyl)sulfinyl)propan-2-yl)-2-(trifluoromethyl)benzamide]: the mortality at 200 ppm in data set [1] was in the range of 0 to 80%. Besides, the mortality at 50 µg/cm2 in data set [2] and in data set [3] was 50 to 100% in each case. Further, the “YFM % Control (or Mortality) rating” value in data set [4] was “A (80-100)”.

Regarding `C[C@H](CS(=O)(=O)CC(F)(F)F)NC(=O)c1ccc(/C(F)=C/C(c2cc(Br)cc(Br)c2)C(F)(F)F)cc1C(F)(F)F` (stereo partly drawn) [F69, 4-((Z)-3-(3,5-Dibromophenyl)-1,4,4,4-tetrafluorobut-1-en-1-yl)-N—((R)-1-((2,2,2-trifluoroethyl)sulfonyl)propan-2-yl)-2-(trifluoromethyl)benzamide], the mortality at 200 ppm in data set [1] fell in the range of 0 to 80%. Further, the mortality at 50 µg/cm2 in data set [2] and in data set [3] was 50 to 100% each time. Moreover, the “YFM % Control (or Mortality) rating” value in data set [4] is listed as “A (80-100)”.

For `C[C@H](CS(=O)(=O)CC(F)(F)F)NC(=O)c1ccc(/C(F)=C/C(c2cc(Cl)c(C(F)F)c(Cl)c2)C(F)(F)F)cc1C(F)(F)F` (stereo partly drawn) [F104], the mortality at 200 ppm in data set [1] is 0%. The mortality at 50 µg/cm2 in data set [2] and in data set [3] was 50 to 100% throughout. Further, the “YFM % Control (or Mortality) rating” value in data set [4] was “A (80-100)”.

Regarding `C[C@H](C[S+]([O-])CCC#N)NC(=O)c1ccc(/C(F)=C/C(c2cc(Cl)c(Cl)c(Cl)c2)C(F)(F)F)cc1C(F)(F)F` (stereo partly drawn) [F122, N-((2R)-1-((2-Cyanoethyl)sulfinyl)propan-2-yl)-4-((Z)-1,4,4,4-tetrafluoro-3-(3,4,5-trichlorophenyl)but-1-en-1-yl)-2-(trifluoromethyl)benzamide], in data set [1], the mortality at 200 ppm was 0 to 80%. Moreover, the mortality at 50 µg/cm2 in data set [2] and in data set [3] was 50 to 100% throughout. Further, the “YFM % Control (or Mortality) rating” value in data set [4] is recorded as “A (80-100)”.

As for `C[C@H](CS(=O)(=O)CCC#N)NC(=O)c1ccc(/C(F)=C/C(c2cc(Cl)c(Cl)c(Cl)c2)C(F)(F)F)cc1C(F)(F)F` (stereo partly drawn) [F123, N—((R)-1-((2-cyanoethyl)sulfonyl)propan-2-yl)-4-((Z)-1,4,4,4-tetrafluoro-3-(3,4,5-trichlorophenyl)but-1-en-1-yl)-2-(trifluoromethyl)benzamide], the mortality at 200 ppm in data set [1] was 0%. For the same compound, the mortality at 50 µg/cm2 in data set [2] and in data set [3] was 50 to 100% each time. Further, the “YFM % Control (or Mortality) rating” value in data set [4] is reported as “A (80-100)”.

On to `C[C@H](CS(=O)(=O)CC(F)(F)F)NC(=O)c1ccc(/C(F)=C/C(c2ccc(F)c(Cl)c2)C(F)(F)F)cc1C(F)(F)F` (stereo partly drawn) [PF2, 4-((Z)-3-(3-Chloro-4-fluorophenyl)-1,4,4,4-tetrafluorobut-1-en-1-yl)-N—((R)-1-((2,2,2-trifluoroethyl)sulfonyl)propan-2-yl)-2-(trifluoromethyl)benzamide], for which the mortality at 200 ppm in data set [1] fell in the range of 0 to 80%. Moreover, the mortality at 50 µg/cm2 in data set [2] and in data set [3] was 50 to 100% in each case. Further, the “YFM % Control (or Mortality) rating” value in data set [4] is “B (More than 0-Less than 80)”.

As usually defined, the mortality is the share of the test organisms that died.
